The source of these data is patent US11524966B1 (Valo Early Discovery, Inc., priority 2017, dated 2022).

In the assay the target is T1, USP28 (USP28-5(1-1077)-TEV-6*His; LifeSensors) (Homo sapiens, UniProt Q96RU2).
T1 construct: construct USP28 (USP28-5(1-1077)-TEV-6*His; LifeSensors); TEV cleavage site (C); 6xHis (C); purchased LifeSensors
T1 sequence (Q96RU2 1-1077): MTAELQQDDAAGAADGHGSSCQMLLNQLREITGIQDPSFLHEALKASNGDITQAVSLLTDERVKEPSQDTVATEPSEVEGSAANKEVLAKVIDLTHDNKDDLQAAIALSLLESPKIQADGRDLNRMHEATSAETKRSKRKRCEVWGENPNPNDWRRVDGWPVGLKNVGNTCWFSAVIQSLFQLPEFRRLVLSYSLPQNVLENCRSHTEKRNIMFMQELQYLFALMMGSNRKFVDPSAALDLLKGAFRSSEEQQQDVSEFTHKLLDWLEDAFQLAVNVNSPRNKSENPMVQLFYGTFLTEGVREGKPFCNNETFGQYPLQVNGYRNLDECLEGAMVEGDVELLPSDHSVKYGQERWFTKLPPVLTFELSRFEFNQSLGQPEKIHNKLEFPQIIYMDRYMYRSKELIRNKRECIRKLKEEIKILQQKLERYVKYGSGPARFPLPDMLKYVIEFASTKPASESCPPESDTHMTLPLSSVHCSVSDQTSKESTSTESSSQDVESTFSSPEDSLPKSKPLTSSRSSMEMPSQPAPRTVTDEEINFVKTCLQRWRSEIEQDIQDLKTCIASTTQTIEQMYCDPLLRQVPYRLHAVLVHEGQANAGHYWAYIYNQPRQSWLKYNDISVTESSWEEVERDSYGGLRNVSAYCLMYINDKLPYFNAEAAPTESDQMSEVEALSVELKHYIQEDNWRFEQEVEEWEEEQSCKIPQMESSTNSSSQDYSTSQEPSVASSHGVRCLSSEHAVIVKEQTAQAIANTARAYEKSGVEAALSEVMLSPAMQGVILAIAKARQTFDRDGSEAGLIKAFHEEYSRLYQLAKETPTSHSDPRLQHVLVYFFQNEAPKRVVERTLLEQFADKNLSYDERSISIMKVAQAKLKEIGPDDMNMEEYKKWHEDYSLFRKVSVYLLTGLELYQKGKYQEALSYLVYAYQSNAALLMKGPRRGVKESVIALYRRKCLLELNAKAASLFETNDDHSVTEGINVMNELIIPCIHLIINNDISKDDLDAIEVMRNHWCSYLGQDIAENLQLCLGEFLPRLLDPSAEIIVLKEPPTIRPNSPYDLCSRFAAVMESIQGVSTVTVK
Kind of assay: Ubiquitin-Rhodamine 110 Assay for USP28 Activity, Example A-1(b). Format: biochemical. On the procedure:
Example A-1(b): Biochemical Assay: Ubiquitin-Rhodamine 110 Assay for USP28 Activity
Each assay was performed in a final volume of 20 μL in assay buffer containing 20 mM Tris-HCl (pH 8.0, (1M Tris-HCl, pH 8.0 solution; Corning 46-031-CM)), 2 mM CaCl2) (1M Calcium Chloride solution; Sigma #21114) 2 mM BME (2-Mercaptoethanol; Sigma 63689-25ML-F), 0.01% Prionex ([…] filtered, Sigma #G-0411), and 0.01% Triton X-100. Stock compound solutions were stored at −20° C. as 10 mM in DMSO. Up to 1 month prior to the assay, 2 mM test compounds were pre-dispensed into assay plates (Black, low volume; Corning #3820) and frozen at −20° C. Prestamped assay plates were allowed to come to room temperature on the day of the assay. For the screen, 100 nL of 2 mM was pre-dispensed for a final screening concentration of 10 μM (DMSO(fc)=0.5%). […] Plates were incubated stacked for 90 minutes at room temperature before fluorescence was read on the Envision (Excitation at 485 nm and Emission at 535 nm; Perkin Elmer) or on the PheraSTAR (Excitation at 485 nm and Emission at 535 nm; BMG Labtech).
For follow-up studies, each assay was performed in a final volume of 15 μL in assay buffer containing 20 mM Tris-HCl (pH 8.0, (1M Tris-HCl, pH 8.0 solution; Corning 46-031-CM)), 3 mM BME (2-Mercaptoethanol; Sigma 63689-25ML-F), 0.03% BGG (0.22 μM filtered, Sigma, G7516-25G), and 0.01% Triton X-100 (Sigma, T9284-10L). Nanoliter quantities of either an 8-point or 10-point, 3-fold serial dilution in DMSO was pre-dispensed into assay plates (Perkin Elmer, ProxiPlate-384 F Plus, #) for a final test concentration of either 25 μM to 11 nM or 25 μM to 1.3 nM, respectively. Enzyme USP28, construct USP28 (USP28-5(1-1077)-TEV-6*His; LifeSensors) concentration and incubation times were optimized for the maximal signal-to-background while maintaining initial velocity conditions at a fixed substrate concentration. The final concentration of the enzyme in the assay was 75 pM. Final substrate (Ub-Rh110; Ubiquitin-Rhodamine 110, R&D Systems #U-555) concentration was 25 nM with [Ub-Rh110]<<Km. 5 μL of 2× enzyme was added to assay plates (pre-stamped with compound) preincubated with USP28 for 30 minutes and then 5 μL of 2×Ub-Rh110 was added to assay plates. Plates were incubated stacked for 20 minutes at room temperature before 5 μL of stop solution was added (final concentration of 10 mM citric acid (Sigma, 251275-500G)). Fluorescence was read on the Envision (Excitation at 485 nm and Emission at 535 nm; Perkin Elmer) or on the PheraSTAR (Excitation at 485 nm and Emission at 535 nm; BMG Labtech).
For assay formats Example A-1(a), A-1(b), and A-2, data were reported as percent inhibition compared with control wells based on the following equation: % inh=1−((FLU−AveLow)/(AveHigh−AveLow)) where FLU=measured Fluorescence, AveLow=average Fluorescence of no enzyme control (n=16), and AveHigh=average Fluorescence of DMSO control (n=16). IC50 values were determined by curve fitting of the standard 4 parameter logistic fitting algorithm included in the Activity Base software package: IDBS XE Designer Model 205. Data is fitted using the Levenburg Marquardt algorithm.

[1] abbreviates: Ubiquitin-Rhodamine 110 assay, Example A-1(b).
The mark [2] stands for this setting: Ubiquitin-Rhodamine 110 assay, format Example A-1(b).

SMILES strings stand for the structures.

In the case of `Cc1ccc2c(N)c(C(=O)N[C@@H]3COc4cc(N5CCN[C@@H](C)[C@H]5C)ccc4C3)sc2n1` (single isomer, unassigned) [Example 1-8], where the note is “Ub-Rh110 assay, Example A-1(b)”, the “USP28 A-1(b) IC50 range” value is recorded as “++++ (0.001-0.05 μM)”.
Consider `Cc1ccc2c(N)c(C(=O)N[C@H]3COc4cc(N5CC6CCC(C5)N6)cc(F)c4C3)sc2n1` (single isomer, unassigned) [Example 1-29], for which the “USP28 A-1(b) IC50 range” value (Ub-Rh110 assay, Example A-1(b)) is reported as “+++ (0.05-0.2 μM)”.
Regarding `Cc1ccc2c(N)c(C(=O)N[C@H]3COc4cc(N5CCNCC5)ccc4[C@H]3C)sc2n1` (single isomer, unassigned) [Example 11-15], under setting [1], the “USP28 A-1(b) IC50 range” value is on record as “+ (>2 μM)”.
Same read-out and setting: next, `Cc1ccc2c(N)c(C(=O)N[C@H]3COc4cc(N5CCNCC5)ccc4[C@@H]3C)sc2n1` (single isomer, unassigned) [Example 11-16]: “+ (>2 μM)”; `Cc1cnc2c(N)c(C(=O)N[C@H]3CCc4cc(N5CCNCC5)ccc4C3)sc2n1` (single isomer, unassigned) [Example 11-19]: “++ (0.2-2 μM)”; `Cc1cnc2c(N)c(C(=O)N[C@@H]3CCc4cc(N5CCNCC5)ccc4C3)sc2n1` (single isomer, unassigned) [Example 11-20]: “+ (>2 μM)”.
Same read-out and setting: under `Cc1ccc2c(N)c(C(=O)N[C@H]3CCc4cc(N5CCNCC5)ccc4C3)sc2n1` (single isomer, unassigned) [Example 11-21] stands “++ (0.2-2 μM)”; under `Cc1ccc2c(N)c(C(=O)N[C@@H]3CCc4cc(N5CCNCC5)ccc4C3)sc2n1` (single isomer, unassigned) [Example 11-22], “++ (0.2-2 μM)”; under `CN[C@H]1CCN(c2ccc3c(c2)CC[C@H](NC(=O)c2sc4nc(C)cnc4c2N)C3)C1` (single isomer, unassigned) [Example 11-25], “++ (0.2-2 μM)”.
With `CN[C@H]1CCN(c2ccc3c(c2)CC[C@@H](NC(=O)c2sc4nc(C)cnc4c2N)C3)C1` (single isomer, unassigned) [Example 11-26], the “USP28 A-1(b) IC50 range” value under setting [1] is recorded as “+ (>2 μM)”.
As to `CN[C@@H]1CCN(c2ccc3c(c2)CC[C@H](NC(=O)c2sc4nc(C)cnc4c2N)C3)C1` (single isomer, unassigned) [Example 11-27], the “USP28 A-1(b) IC50 range” value under setting [1] is “++ (0.2-2 μM)”.
The same measure, in the same setting: next, `CN[C@@H]1CCN(c2ccc3c(c2)CC[C@@H](NC(=O)c2sc4nc(C)cnc4c2N)C3)C1` (single isomer, unassigned) [Example 11-28]: “+ (>2 μM)”; `Cc1cnc2c(N)c(C(=O)N[C@H]3CCc4cc(N5C[C@@H]6C[C@H]5CN6)ccc4C3)sc2n1` (single isomer, unassigned) [Example 11-29]: “++ (0.2-2 μM)”.
`Cc1cnc2c(N)c(C(=O)N[C@@H]3CCc4cc(N5C[C@@H]6C[C@H]5CN6)ccc4C3)sc2n1` (single isomer, unassigned) [Example 11-30]: the “USP28 A-1(b) IC50 range” value under setting [2] is “++ (0.2-2 μM)”.
Regarding `Cc1cnc2c(N)c(C(=O)N[C@H]3CCc4cc(N5C[C@H]6C[C@@H]5CN6)ccc4C3)sc2n1` (single isomer, unassigned) [Example 11-31], the “USP28 A-1(b) IC50 range” value under setting [2] is reported as “++ (0.2-2 μM)”.
Same read-out and setting: next, `Cc1cnc2c(N)c(C(=O)N[C@@H]3CCc4cc(N5C[C@H]6C[C@@H]5CN6)ccc4C3)sc2n1` (single isomer, unassigned) [Example 11-32]: “++ (0.2-2 μM)”; `Cc1nc2sc(C(=O)N[C@@H]3CCc4cc(N5CCNCC5)ccc4C3)c(N)c2s1` (single isomer, unassigned) [Example 11-34]: “++ (0.2-2 μM)”; `Cc1cnc2c(N)c(C(=O)N[C@@H]3CCc4cc(N5CCNCC5)cc(F)c4C3)sc2n1` (single isomer, unassigned) [Example 11-37]: “+ (>2 μM)”.
With `Cc1cnc2c(N)c(C(=O)N[C@H]3CCc4cc(N5CCNCC5)cc(F)c4C3)sc2n1` (single isomer, unassigned) [Example 11-38], the “USP28 A-1(b) IC50 range” value under setting [2] is “+++ (0.05-0.2 μM)”.
With `Cc1ccc2c(N)c(C(=O)N[C@H]3CCc4cc(N5CC6CNCC(C5)O6)cc(F)c4C3)sc2n1` (single isomer, unassigned) [Example 11-39], the “USP28 A-1(b) IC50 range” value under setting [2] is “++ (0.2-2 μM)”.
Same read-out and setting: under `Cc1ccc2c(N)c(C(=O)N[C@@H]3CCc4cc(N5CC6CNCC(C5)O6)cc(F)c4C3)sc2n1` (single isomer, unassigned) [Example 11-40] stands “++++ (0.001-0.05 μM)”.
Regarding `Cc1ccc2c(N)c(C(=O)N[C@H]3CCc4cc(N5CC6CNCC(C5)O6)ccc4C3)sc2n1` (single isomer, unassigned) [Example 449], the “USP28 A-1(b) IC50 range” value under setting [1] is recorded as “++ (0.2-2 μM)”.
On to `Cc1ccc2c(N)c(C(=O)N[C@H]3COc4cc(N5CCNC6(COC6)C5)ccc4C3)sc2n1` [Example 4-1, (R)—N-(7-(2-oxa-5,8-diazaspiro[3.5]nonan-8-yl)chroman-3-yl)-3-amino-6-methylthieno[2,3-b]pyridine-2-carboxamide], for which the “USP28 A-1(b) IC50 range” value under setting [1] was “++ (0.2-2 μM)”.
For `Cc1ccc2c(N)c(C(=O)N[C@@H]3CCc4c(C#N)c(N5CCNCC5)cc(F)c4C3)sc2n1` [Example 14-9, (R)-3-amino-N-(5-cyano-8-fluoro-6-(piperazin-1-yl)-1,2,3,4-tetrahydronaphthalen-2-yl)-6-methylthieno[2,3-b]pyridine-2-carboxamide], the “USP28 A-1(b) IC50 range” value under setting [2] is on record as “+ (>2 μM)”.
On the same count and under the same terms, next, `Cc1ccc2c(N)c(C(=O)N[C@H]3CCc4c(C#N)c(N5CCNCC5)cc(F)c4C3)sc2n1` [Example 14-10, (S)-3-amino-N-(5-cyano-8-fluoro-6-(piperazin-1-yl)-1,2,3,4-tetrahydronaphthalen-2-yl)-6-methylthieno[2,3-b]pyridine-2-carboxamide]: “+++ (0.05-0.2 μM)”.
